Marks after values point to notes of the source that are not given here.
Tests used:
human CYPs = conditions: concentrations up to 30 µM in vitro; ref data on file; cited from earlier work
[1] = Safety and tolerability (adverse events, laboratory findings), phase 1 DDI study
Description: Participants were also excluded if they used any prescription medication (except female contraception) and any over-the-counter medications/supplements within 14 days and 7 days prior to the first admission, respectively.
In both cohorts, FMGX was administered as a 3-hour IV infusion twice a day (BID, dosing interval: […]). All participants received FMGX on 2 days, once before a washout period (minimum 14 days) and once after the washout. […] The study consisted of a screening phase [days −28 to −1 (admission)], assessment phase (cohort 1: days −1 to 31; cohort 2: days −1 to 34), and follow-up phase (cohort 1: day 38 ± 1; cohort 2: day 41 ± 1). Participants in both cohorts had in-clinic stays for two periods: cohort 1 [days −1 to 4 (morning) and days 17 to 31 (morning)], cohort 2 [days −1 to 4 (morning) and day 23 to 34 (morning)], and at home dosing for two periods: cohort 1 (days 15 to 17) and cohort 2 (days 15 to 23).
Safety was assessed by evaluating the frequency of adverse events (AEs) recorded from the first admission (day −1) until completion of the follow-up visit (day 38 ± 1 in cohort 1; day 41 ± 1 in cohort 2). All AEs were classified per the Medical Dictionary for Regulatory Activities (MedDRA v22.1). The investigator ascertained relatedness to study the drug administration.
An analysis of variance (ANOVA) model was used to analyze the natural log-transformed primary PK parameters while the secondary PK parameters were not subjected to inferential statistical analysis. For each cohort, 18 participants were included to ensure at least 16 completed all assessments, as this was considered adequate to evaluate PK, safety, and tolerability. Thus, a sample size of 36 was considered sufficient to assess primary and secondary objectives. […] The PK analysis set included all participants who received at least one dose of FMGX and had adequate plasma concentration data available for PK analysis.

[2] = tested on: Candida, Coccidioides, Cryptococcus, and Aspergillus spp; conditions: cited from earlier work
[3] = Plasma pharmacokinetics of MGX and FMGX (noncompartmental analysis), phase 1 fixed-sequence DDI study with itraconazole or rifampin; format: in vivo, human; conditions: for FMGX AUC(0-23) / FMGX AUC(0-t) / FMGX Cmax / FMGX Tmax / FMGX AUC(inf) / FMGX CL / FMGX Vz / FMGX t½ / FMGX λz: D1; for FMGX AUC(0-23) / FMGX AUC(0-t) / FMGX Cmax / FMGX AUC(inf) / FMGX CL / FMGX Vz / FMGX t½ / FMGX λz: geometric mean (geometric %CV); for FMGX Tmax: median (range)
Description: In cohort 1, MGX plasma samples were collected at specified time points daily on days 1–4, once every 2 days on days 6–14, daily for 3 days from days 18 to 20, once every 2 days from days 21 to 29, and then on day 31, while itraconazole samples were collected at specified time points on days 19, 25, and 31. […] PK parameters were calculated using noncompartmental analysis from the plasma concentration-time data for MGX and FMGX. Primary PK parameters were maximum observed plasma concentration (Cmax), AUC from time 0 to infinity (AUC0-inf), and AUC up to time t (AUC0-t, where t was the last time point with concentrations above the lower limit of quantitation). […] Secondary PK parameters were time to attain Cmax (Tmax), AUC from time 0 to 23 hours (AUC0-23), terminal elimination half-life after the last dosing on the day (t1/2), clearance (CL), volume of distribution at terminal phase (Vz), and terminal phase rate constant after the last dosing on the day (λz).

CYP450 enzymes = conditions: cited from earlier work
[4] = FMGX only 500 mg BID IV, Cohort 1, n = 16
[5] = FMGX only 500 mg BID IV, Cohort 1, n=12
[6] = FMGX only 1000 mg BID IV, Cohort 2, n = 17
[7] = one participant, cohort 1, considered related to itraconazole, days 31 through 70

Nc1c(-c2cc(Cc3ccc(COc4ccccn4)cc3)no2)ccc[n+]1COP(=O)([O-])O [FMGX, Fosmanogepix]
Reversible or time-dependent inhibition of human CYPs (human CYPs): No reversible or time-dependent inhibition | FMGX-related AEs / all events ([1]; Cohort 1, FMGX 500 mg): 4/43 | FMGX-related AEs / all events ([1]; Cohort 2, FMGX 1,000 mg): 33/145 | Safety and tolerability ([1]; FMGX 500 and 1,000 mg, alone or with itraconazole 200 mg or rifampin 600 mg): safe and well tolerated | Deaths, serious AEs (SAEs), FMGX-related withdrawals ([1]; both cohorts, N = 36): No deaths, serious AEs (SAEs), or FMGX-related withdrawals | Participants reporting FMGX-related AEs, n (%) ([1]; both cohorts, N = 36): 12 (33.3%) | AEs considered related to FMGX, number of events ([1]; of all 188 events, both cohorts): 37 | Efficacy in mouse models of invasive pulmonary and disseminated fungal infections [2]: demonstrated efficacy | FMGX AUC(0-23) [3, 4]: 9945 (16.5) hr×ng/mL | FMGX AUC(0-t) [3, 4]: 9945 (16.5) hr×ng/mL | FMGX Cmax [3, 4]: 1520 (18.6) ng/mL | FMGX Tmax [3, 4]: 10.5 (0.50 – 12.0) hr | FMGX AUC(inf) [3, 5]: 10191 (18.3)** hr×ng/mL | FMGX CL [3, 5]: 98128 (18.3)** mL/hr | FMGX Vz [3, 5]: 53.6 (22.5)** L | FMGX t½ [3, 5]: 0.38 (14.4)** hr | FMGX λz [3, 5]: 1.83 (14.4)** 1/hr | FMGX AUC(0-23) [3, 6]: 18162 (22.3) hr×ng/mL | FMGX AUC(0-t) [3, 6]: 18162 (22.3) hr×ng/mL | FMGX AUC(inf) [3, 6]: 18163 (22.3) hr×ng/mL | FMGX CL [3, 6]: 110117 (22.3) mL/hr | FMGX Cmax [3, 6]: 2974 (24.2) ng/mL | FMGX Vz [3, 6]: 69.4 (30.4) L | FMGX t½ [3, 6]: 0.44 (18.4) hr | FMGX λz [3, 6]: 1.59 (18.4) 1/hr | FMGX Tmax [3, 6]: 9.50 (0.50 – 12.1) hr | Effect of CYP3A4 inhibition or pan-CYP induction on exposure to FMGX ([3]; both cohorts): did not affect exposure | Substrate for CYP450 enzymes (CYP450 enzymes): not a substrate

CCC(C)n1ncn(-c2ccc(N3CCN(c4ccc(OCC5COC(Cn6cncn6)(c6ccc(Cl)cc6Cl)O5)cc4)CC3)cc2)c1=O (stereo not shown) [ITR, itraconazole, reference compound]
Increase in alanine transaminase (ALT) [1, 7]: ~ 8 × ULN | Increase in aspartate transaminase (AST) [1, 7]: ~ 11 × ULN | Increase in lactate dehydrogenase (LDH) ([1]; one participant, cohort 1, day 31 to day 63): ~ 2 × ULN
